Measured values published in US11655225B2, “Antimycobacterial heterocyclic amides” (Crestone, Inc., priority 2018, dated 2023).
Values after ≈ are worked out from the molar mass of the structure shown.

Test system: M. abscessus
Assay: MIC determination, CLSI M24-A
Assay type: cell-based
Conditions: Mycobacteroides abscessus, CLSI M24-A

Row | SMILES | MIC [µg/mL]
1 | O=C(Nc1nc2c(F)cc(F)cc2s1)C1CCCCCC1 [Example 139, N-(4,6-difluoro-1,3-benzothiazol-2-yl)cycloheptanecarboxamide] | 2 to 32 (≈ 6.44 to 103 µM)
2 | O=C(Nc1nc2ccccc2o1)C1CCCCCCC1 [Example 187, N-(1,3-benzoxazol-2-yl)cyclooctanecarboxamide] | 2 to 32 (≈ 7.34 to 117 µM)
3 | CC12CC3CC(C)(C1)CC(C(=O)Nc1nc4ccccc4[nH]1)(C3)C2 [Example 146, N-(1H-1,3-benzodiazol-2-yl)-3,5-dimethyladamantane-1-carboxamide] | 2 to 32 (≈ 6.18 to 98.9 µM)
4 | CC12CCCC(C(=O)Nc3nc4ccc(C(F)(F)F)cc4o3)(CCC1)C2 [Example 132, 5-methyl-N-[6-(trifluoromethyl)-1,3-benzoxazol-2-yl]bicyclo[3.3.1]nonane-1-carboxamide] | 2 to 32 (≈ 5.46 to 87.3 µM)
5 | CC1CC(C(=O)Nc2nc3c(Cl)cccc3s2)CC(C)(C)C1 (centres unmarked) [Example 179, N-(4-chloro-1,3-benzothiazol-2-yl)-3,3,5-trimethylcyclohexane-1-carboxamide] | 2 to 32 (≈ 5.94 to 95 µM)
6 | CC1CCCC(C(=O)Nc2nc3c(Cl)cccc3s2)C1 (centres unmarked) [Example 167, N-(4-chloro-1,3-benzothiazol-2-yl)-3-methylcyclohexane-1-carboxamide] | 2 to 32 (≈ 6.48 to 104 µM)
7 | CC1(C(=O)Nc2nc3cc(F)cc(F)c3s2)CCCCC1 [Example 133, N-(5,7-difluoro-1,3-benzothiazol-2-yl)-1-methylcyclohexane-1-carboxamide] | 2 to 32 (≈ 6.44 to 103 µM)
8 | COC1CCCC(C(=O)Nc2nc3ccc(Cl)cc3s2)C1 (centres unmarked) [Example 191, N-(6-chloro-1,3-benzothiazol-2-yl)-3-methoxycyclohexane-1-carboxamide] | 2 to 32 (≈ 6.16 to 98.5 µM)
9 | CC1(C(=O)Nc2nc3ccc(OC(F)(F)F)cc3s2)CC2CC2C1 (centres unmarked) [Example 137, 3-methyl-N-[6-(trifluoromethoxy)-1,3-benzothiazol-2-yl]bicyclo[3.1.0]hexane-3-carboxamide] | 2 to 32 (≈ 5.61 to 89.8 µM)
10 | O=C(Nc1nc2ccc(OC(F)F)cc2s1)C1CCCCCCC1 [Example 108, N-[6-(difluoromethoxy)-1,3-benzothiazol-2-yl]cyclooctanecarboxamide] | 2 to 32 (≈ 5.64 to 90.3 µM)
11 | CC12CC3CC(C)(C1)CC(C(=O)Nc1nc4ccc(Br)cc4o1)(C3)C2 [Example 115, N-(6-bromo-1,3-benzoxazol-2-yl)-3,5-dimethyladamantane-1-carboxamide] | 2 to 32 (≈ 4.96 to 79.3 µM)
12 | CC12CCCC(C(=O)Nc3nc4cc(Cl)cc(Cl)c4o3)(CCC1)C2 [Example 184, N-(5,7-dichloro-1,3-benzoxazol-2-yl)-5-methylbicyclo[3.3.1]nonane-1-carboxamide] | 2 to 32 (≈ 5.45 to 87.1 µM)
13 | CC1CCCC(C(=O)Nc2nc3ccc(F)cc3s2)C1 (centres unmarked) [Example 170, N-(6-fluoro-1,3-benzothiazol-2-yl)-3-methylcyclohexane-1-carboxamide] | 2 to 32 (≈ 6.84 to 109 µM)
14 | CC12CC3CC(C)(C1)CC(C(=O)Nc1nc4cc(Cl)ccc4o1)(C3)C2 [Example 140, N-(5-chloro-1,3-benzoxazol-2-yl)-3,5-dimethyladamantane-1-carboxamide] | 2 to 32 (≈ 5.57 to 89.2 µM)
15 | CC1CCCC(C(=O)Nc2nc3ccc(Cl)cc3s2)C1 (centres unmarked) [Example 168, N-(6-chloro-1,3-benzothiazol-2-yl)-3-methylcyclohexane-1-carboxamide] | 2 to 32 (≈ 6.48 to 104 µM)
16 | O=C(Nc1nc2c(F)c(F)c(F)cc2s1)C1CCCCCC1 [Example 141, N-(4,5,6-trifluoro-1,3-benzothiazol-2-yl)cycloheptanecarboxamide] | 2 to 32 (≈ 6.09 to 97.5 µM)
17 | CC1CC(C(=O)Nc2nc3ccccc3o2)CC(C)(C)C1 (centres unmarked) [Example 165, N-(1,3-benzoxazol-2-yl)-3,3,5-trimethylcyclohexane-1-carboxamide] | 2 to 32 (≈ 6.98 to 112 µM)
18 | CC1(C(=O)Nc2nc3ccc(OC(F)(F)F)cc3s2)CC2CCC1O2 (centres unmarked) [Example 185, 2-methyl-N-[6-(trifluoromethoxy)-1,3-benzothiazol-2-yl]-7-oxabicyclo[2.2.1]heptane-2-carboxamide] | 2 to 32 (≈ 5.37 to 85.9 µM)
19 | Cc1cccc2sc(NC(=O)C3CCCC(C)C3)nc12 (centres unmarked) [Example 180, 3-methyl-N-(4-methyl-1,3-benzothiazol-2-yl)cyclohexane-1-carboxamide] | 2 to 32 (≈ 6.93 to 111 µM)
20 | CC12CC3CC(C)(C1)CC(C(=O)Nc1nc4c(F)cccc4o1)(C3)C2 [Example 144, N-(4-fluoro-1,3-benzoxazol-2-yl)-3,5-dimethyladamantane-1-carboxamide] | 2 to 32 (≈ 5.84 to 93.5 µM)
21 | CC1CC(C(=O)Nc2nc3c(F)cccc3s2)CC(C)(C)C1 (centres unmarked) [Example 121, N-(4-fluoro-1,3-benzothiazol-2-yl)-3,3,5-trimethylcyclohexane-1-carboxamide] | 2 to 32 (≈ 6.24 to 99.9 µM)
22 | CCOc1ccc2nc(NC(=O)C3CC4CCCC(C4)C3)sc2c1 (centres unmarked) [Example 138, N-(6-ethoxy-1,3-benzothiazol-2-yl)bicyclo[3.3.1]nonane-3-carboxamide] | 2 to 32 (≈ 5.81 to 92.9 µM)
23 | CC1CCC(C(=O)Nc2nc3ccc(C(F)(F)F)cc3s2)C1 (centres unmarked) [Example 152, 3-methyl-N-[6-(trifluoromethyl)-1,3-benzothiazol-2-yl]cyclopentane-1-carboxamide] | 2 to 32 (≈ 6.09 to 97.5 µM)
24 | CC1CCCC(C(=O)Nc2nc3c(F)cc(F)cc3s2)C1 (centres unmarked) [Example 169, N-(4,6-difluoro-1,3-benzothiazol-2-yl)-3-methylcyclohexane-1-carboxamide] | 2 to 32 (≈ 6.44 to 103 µM)

Row | SMILES | MIC [µg/mL]
25 | CC(C)(C)C(=O)Nc1nc2ccc(OC(F)(F)F)cc2s1 [Example 173, 2,2-dimethyl-N-[6-(trifluoromethoxy)-1,3-benzothiazol-2-yl]propanamide] | 2 to 32 (≈ 6.28 to 101 µM)
26 | CC1CC(C(=O)Nc2nc3cc(F)c(F)cc3o2)CC(C)(C)C1 (centres unmarked) [Example 175, N-(5,6-difluoro-1,3-benzoxazol-2-yl)-3,3,5-trimethylcyclohexane-1-carboxamide] | 2 to 32 (≈ 6.2 to 99.3 µM)
27 | CC1(C(=O)Nc2nc3c(F)c(F)c(F)cc3s2)CCCCCC1 [Example 103, 1-methyl-N-(4,5,6-trifluoro-1,3-benzothiazol-2-yl)cycloheptane-1-carboxamide] | 2 to 32 (≈ 5.84 to 93.5 µM)
28 | COc1ccc2nc(NC(=O)C3CCCC(C)C3)sc2c1 (centres unmarked) [Example 181, N-(6-methoxy-1,3-benzothiazol-2-yl)-3-methylcyclohexane-1-carboxamide] | 2 to 32 (≈ 6.57 to 105 µM)
29 | CC1CC(C(=O)Nc2nc3cc(Cl)c(Cl)cc3[nH]2)CC(C)(C)C1 (centres unmarked) [Example 151, N-(5,6-dichloro-1H-1,3-benzodiazol-2-yl)-3,3,5-trimethylcyclohexane-1-carboxamide] | 2 to 32 (≈ 5.65 to 90.3 µM)
30 | CC1(C(=O)Nc2nc3ccc(Br)cc3s2)CCCCC1 [Example 134, N-(6-bromo-1,3-benzothiazol-2-yl)-1-methylcyclohexane-1-carboxamide] | 2 to 32 (≈ 5.66 to 90.6 µM)
31 | O=C(Nc1nc2ccc(OC(F)F)cc2s1)C1CCCCC1 [Example 156, N-[6-(difluoromethoxy)-1,3-benzothiazol-2-yl]cyclohexanecarboxamide] | 2 to 32 (≈ 6.13 to 98 µM)
32 | O=C(Nc1nc2ccc(Cl)cc2s1)C12CC3CC(CC(C3)C1)C2 [Example 107, N-(6-chloro-1,3-benzothiazol-2-yl)adamantane-1-carboxamide] | 2 to 32 (≈ 5.77 to 92.3 µM)
33 | CC1(C(=O)Nc2nc3c(F)cc(F)cc3s2)CCCCC1 [Example 171, N-(4,6-difluoro-1,3-benzothiazol-2-yl)-1-methylcyclohexane-1-carboxamide] | 2 to 32 (≈ 6.44 to 103 µM)
34 | CC1CC(C(=O)Nc2nc3cc(Cl)cc(Cl)c3o2)CC(C)(C)C1 (centres unmarked) [Example 142, N-(5,7-dichloro-1,3-benzoxazol-2-yl)-3,3,5-trimethylcyclohexane-1-carboxamide] | 2 to 32 (≈ 5.63 to 90.1 µM)
35 | CC1CC(C(=O)Nc2nc3ccc(N(C)C)cc3s2)CC(C)(C)C1 (centres unmarked) [Example 186, N-[6-(dimethylamino)-1,3-benzothiazol-2-yl]-3,3,5-trimethylcyclohexane-1-carboxamide] | 2 to 32 (≈ 5.79 to 92.6 µM)
36 | O=C(Nc1nc2ccc(OC(F)(F)F)cc2s1)C1CCCC1 [Example 130, N-[6-(trifluoromethoxy)-1,3-benzothiazol-2-yl]cyclopentanecarboxamide] | 2 to 32 (≈ 6.05 to 96.9 µM)
37 | CC12CC3CC(C)(C1)CC(C(=O)Nc1nc4cc(F)c(F)cc4[nH]1)(C3)C2 [Example 119, N-(5,6-difluoro-1H-1,3-benzodiazol-2-yl)-3,5-dimethyladamantane-1-carboxamide] | 2 to 32 (≈ 5.56 to 89 µM)
38 | CC1CCCC(NC(=O)Nc2nc3ccc(C(F)(F)F)cc3s2)C1 (centres unmarked) [Example 149, 1-(3-methylcyclohexyl)-3-[6-(trifluoromethyl)-1,3-benzothiazol-2-yl]urea] | 2 to 32 (≈ 5.6 to 89.5 µM)
39 | CC12CC3CC(C)(C1)CC(C(=O)Nc1nc4cc(Cl)c(Cl)cc4o1)(C3)C2 [Example 112, N-(5,6-dichloro-1,3-benzoxazol-2-yl)-3,5-dimethyladamantane-1-carboxamide] | 2 to 32 (≈ 5.08 to 81.4 µM)
40 | CC12CC3CC(C)(C1)CC(C(=O)Nc1nc4ccc(Cl)cc4o1)(C3)C2 [Example 117, N-(6-chloro-1,3-benzoxazol-2-yl)-3,5-dimethyladamantane-1-carboxamide] | 2 to 32 (≈ 5.57 to 89.2 µM)
41 | Cc1cc(C)c2oc(NC(=O)C3CC(C)CC(C)(C)C3)nc2c1 (centres unmarked) [Example 143, N-(5,7-dimethyl-1,3-benzoxazol-2-yl)-3,3,5-trimethylcyclohexane-1-carboxamide] | 2 to 32 (≈ 6.36 to 102 µM)
42 | CC12CC3CC(C)(C1)CC(C(=O)Nc1nc4c(F)cccc4s1)(C3)C2 [Example 122, N-(4-fluoro-1,3-benzothiazol-2-yl)-3,5-dimethyladamantane-1-carboxamide] | 2 to 32 (≈ 5.58 to 89.3 µM)
43 | CC1(C(=O)Nc2nc3ccc(OC(F)F)cc3s2)CCCCC1 [Example 172, N-[6-(difluoromethoxy)-1,3-benzothiazol-2-yl]-1-methylcyclohexane-1-carboxamide] | 2 to 32 (≈ 5.88 to 94 µM)
44 | CC1CCCC(C(=O)Nc2nc3ccc(C(F)(F)F)cc3s2)C1 (centres unmarked) [Example 127, 3-methyl-N-[6-(trifluoromethyl)-1,3-benzothiazol-2-yl]cyclohexane-1-carboxamide] | 2 to 32 (≈ 5.84 to 93.5 µM)
45 | O=C(Nc1nc2c(F)cc(F)cc2s1)C1CCCCC1 [Example 157, N-(4,6-difluoro-1,3-benzothiazol-2-yl)cyclohexanecarboxamide] | 2 to 32 (≈ 6.75 to 108 µM)
46 | O=C(Nc1cc2ccccc2s1)C1CCCCC1 [Example 176, N-(1-benzothiophen-2-yl)cyclohexanecarboxamide] | 2 to 32 (≈ 7.71 to 123 µM)
47 | CC1CCC(C(=O)Nc2nc3ccc(OC(F)(F)F)cc3s2)C1 (centres unmarked) [Example 102, 3-methyl-N-[6-(trifluoromethoxy)-1,3-benzothiazol-2-yl]cyclopentane-1-carboxamide] | 2 to 32 (≈ 5.81 to 92.9 µM)
